Measured values: PubChem BioAssay (NCI)
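Step 1: Grow cells in 96-well plates. Step 2: Expose to compound for 48 hours at 5 concentrations. Step 3: Interpolate endpoints linearly; if unreached, use highest concentration. GI50: concentration for 50% inhibition of growth. Definition used: TGI = concentration required for complete inhibition of growth.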

Assays:
Assay in all cases: NCI-60 cell line screen, 48 h; in the data active = GI50 below about 0.43 µM; inactive = the rest
[1] = system: SK-OV-3 ovarian
[2] = system: HCC-2998 colon
[3] = system: COLO 205 colon
[4] = system: 786-0 renal
[5] = system: SNB-75 CNS
[6] = system: NCI/ADR-RES ovarian
[7] = system: SK-MEL-5 melanoma
[8] = system: BT-549 breast
[9] = system: MOLT-4 leukemia
[10] = system: HS 578T breast
[11] = system: U251 CNS
[12] = system: TK-10 renal
[13] = system: HCT-116 colon
[14] = system: SF-539 CNS
[15] = system: SF-295 CNS
[16] = system: IGROV1 ovarian
[17] = system: HL-60(TB) leukemia
[18] = system: MCF7 breast
[19] = system: OVCAR-5 ovarian
[20] = system: SK-MEL-2 melanoma
[21] = system: HOP-92 NSCLC
[22] = system: MDA-MB-231 breast
[23] = system: RPMI-8226 leukemia
[24] = system: SF-268 CNS
[25] = system: NCI-H522 lung
[26] = system: SNB-19 CNS
[27] = system: T-47D breast
[28] = system: UO-31 renal
[29] = system: SN12C renal
[30] = system: K-562 leukemia
[31] = system: UACC-62 melanoma
[32] = system: DU-145 prostate
[33] = system: HT29 colon
[34] = system: HOP-62 NSCLC
[35] = system: OVCAR-8 ovarian
[36] = system: CCRF-CEM leukemia
[37] = system: MALME-3M melanoma
[38] = system: SK-MEL-28 melanoma
[39] = system: RXF 393 renal
[40] = system: MDA-MB-435
[41] = system: SW-620 colon
[42] = system: ACHN renal
[43] = system: PC-3 prostate
[44] = system: CAKI-1 renal
[45] = system: LOX IMVI melanoma
[46] = system: NCI-H460 lung
[47] = system: OVCAR-3 ovarian
[48] = system: HCT-15 colon
[49] = system: A498 renal
[50] = system: NCI-H226 lung
[51] = system: SR leukemia
[52] = system: A549 NSCLC
[53] = system: KM12 colon
[54] = system: UACC-257 melanoma
[55] = system: M14 melanoma
[56] = system: NCI-H23 lung
[57] = system: EKVX NSCLC
[58] = system: OVCAR-4 ovarian

N=C1S/C(=C/c2ccc(-c3ccc4c(c3)C(=O)NC4=O)o2)C(=O)N1c1ccc(Br)cc1
8.95 µM: TGI [15]
inactive: GI50 [1] 6.19 µM | GI50 [2] > 100 µM | GI50 [3] > 100 µM | GI50 [4] 3.45 µM | GI50 [5] 2.17 µM | GI50 [6] > 100 µM | GI50 [7] 3.48 µM | GI50 [8] 4.31 µM | GI50 [9] > 100 µM | GI50 [10] 7.5 µM | GI50 [11] 2.91 µM | GI50 [12] 3.32 µM | GI50 [13] 3.65 µM | GI50 [14] > 100 µM | GI50 [15] 2.96 µM | GI50 [16] 15.9 µM | GI50 [17] > 100 µM | GI50 [18] 3.68 µM | GI50 [19] > 100 µM | GI50 [20] 11.7 µM | GI50 [21] 1.81 µM | GI50 [22] 4.21 µM | GI50 [23] 4.2 µM | GI50 [24] 6.3 µM | GI50 [25] 3.63 µM | GI50 [26] > 100 µM | GI50 [27] 2.92 µM | GI50 [28] > 100 µM
> 100 µM: TGI [1] | TGI [2] | TGI [3] | TGI [4] | TGI [6] | TGI [7] | TGI [9] | TGI [10] | TGI [12] | TGI [13] | TGI [14] | TGI [16] | TGI [17] | TGI [18] | TGI [19] | TGI [22] | TGI [23] | TGI [24] | TGI [25] | TGI [26] | TGI [27] | TGI [28]
41.8 µM: TGI [20]
8.23 µM: TGI [11]
6.76 µM: TGI [5]
8.56 µM: TGI [21]
56 µM: TGI [8]

Cc1nc2ccccc2c(/C=C/c2ccc(Cl)cc2)c1C(=O)/C=C/c1ccc(F)cc1
4.11 µM: TGI [6]
4.07 µM: TGI [29]
3.01 µM: TGI [2] | TGI [37]
2.61 µM: TGI [45]
3.49 µM: TGI [19]
3.35 µM: TGI [38]
4.48 µM: TGI [23]
2.14 µM: TGI [13]
2.83 µM: TGI [42]
4.77 µM: TGI [22]
5.47 µM: TGI [51]
2.31 µM: TGI [44]
2.69 µM: TGI [16]
3.43 µM: TGI [41]
> 100 µM: TGI [30] | TGI [36]
3.57 µM: TGI [50]
2.86 µM: TGI [27]
4.32 µM: TGI [18]
4.16 µM: TGI [35]
7.2 µM: TGI [9]
3.04 µM: TGI [24]
4.04 µM: TGI [25]
2.37 µM: TGI [5]
3.79 µM: TGI [20]
3.21 µM: TGI [40]
3.71 µM: TGI [34] | TGI [43]
3.48 µM: TGI [4]
2.36 µM: TGI [28]
3.16 µM: TGI [39]
3.25 µM: TGI [14]
2.85 µM: TGI [46]
7.54 µM: TGI [33]
4.91 µM: TGI [3]
2.91 µM: TGI [31] | TGI [48]
2.89 µM: TGI [21] | TGI [26]
inactive: GI50 [29] 1.81 µM | GI50 [2] 1.53 µM | GI50 [3] 2.08 µM | GI50 [4] 1.78 µM | GI50 [30] 1.2 µM | GI50 [5] 1.16 µM | GI50 [6] 1.85 µM | GI50 [7] 1.62 µM | GI50 [9] 1.19 µM | GI50 [10] 2.17 µM | GI50 [31] 1.49 µM | GI50 [32] 1.68 µM | GI50 [33] 1.21 µM | GI50 [34] 1.89 µM | GI50 [11] 1.44 µM | GI50 [13] 0.531 µM | GI50 [35] 1.62 µM | GI50 [14] 1.76 µM | GI50 [36] 1.26 µM | GI50 [15] 1.75 µM | GI50 [37] 1.64 µM | GI50 [16] 1.15 µM | GI50 [38] 1.81 µM | GI50 [17] 1.57 µM | GI50 [39] 1.66 µM | GI50 [18] 0.781 µM | GI50 [19] 1.63 µM | GI50 [20] 1.87 µM | GI50 [21] 1.19 µM | GI50 [22] 1.92 µM | GI50 [23] 1.37 µM | GI50 [40] 1.55 µM | GI50 [41] 1.42 µM | GI50 [42] 1.51 µM | GI50 [43] 1.6 µM | GI50 [24] 1.52 µM | GI50 [44] 1.11 µM | GI50 [45] 1.32 µM | GI50 [25] 1.44 µM | GI50 [46] 1.39 µM | GI50 [47] 1.46 µM | GI50 [26] 1.54 µM | GI50 [27] 1.1 µM | GI50 [48] 1.06 µM | GI50 [49] 1.79 µM | GI50 [50] 1.68 µM | GI50 [28] 1.15 µM | GI50 [51] 0.704 µM
2.97 µM: TGI [7]
4.13 µM: TGI [17]
2.8 µM: TGI [47]
3.65 µM: TGI [32]
2.92 µM: TGI [11]
5.94 µM: TGI [10]
3.22 µM: TGI [15] | TGI [49]

COc1cc(-c2nn(-c3ccc(NC(=O)NCCCNC(=O)c4ccccc4)cc3)cc2-c2ccncc2)ccc1Cl
0.647 µM: TGI [47]
1.2 µM: TGI [17]
21.9 µM: TGI [11]
23.7 µM: TGI [54]
2.86 µM: TGI [4]
8.81 µM: TGI [2]
5.22 µM: TGI [20]
0.843 µM: TGI [14]
11.3 µM: TGI [28]
3.48 µM: TGI [31]
1.84 µM: TGI [55]
14 µM: TGI [27]
> 100 µM: TGI [1] | TGI [29] | TGI [5] | TGI [6] | TGI [9] | TGI [10] | TGI [32] | TGI [34] | TGI [36] | TGI [16] | TGI [38] | TGI [18] | TGI [19] | TGI [56] | TGI [22] | TGI [41] | TGI [43] | TGI [26] | TGI [57] | TGI [58] | TGI [48] | TGI [50]
5.33 µM: TGI [8]
77.6 µM: TGI [52]
0.917 µM: TGI [39]
5.51 µM: TGI [13]
2.88 µM: TGI [37]
8.07 µM: TGI [45]
2.16 µM: TGI [33]
12.7 µM: TGI [35]
active: GI50 [7] 0.362 µM | GI50 [32] 0.385 µM | GI50 [33] 0.378 µM | GI50 [53] 0.39 µM | GI50 [13] 0.361 µM | GI50 [14] 0.266 µM | GI50 [36] 0.385 µM | GI50 [17] 0.358 µM | GI50 [39] 0.293 µM | GI50 [18] 0.338 µM | GI50 [55] 0.311 µM | GI50 [25] 0.231 µM | GI50 [46] 0.404 µM | GI50 [47] 0.252 µM
5.3 µM: TGI [42]
2 µM: TGI [53]
1.43 µM: TGI [7]
inactive: GI50 [1] 0.752 µM | GI50 [29] 0.718 µM | GI50 [2] 1.21 µM | GI50 [4] 0.493 µM | GI50 [52] 3.23 µM | GI50 [5] 1.12 µM | GI50 [6] 3.78 µM | GI50 [8] 0.887 µM | GI50 [9] 0.905 µM | GI50 [10] 0.428 µM | GI50 [31] 0.543 µM | GI50 [34] 0.46 µM | GI50 [11] 0.561 µM | GI50 [12] 2.3 µM | GI50 [35] 0.635 µM | GI50 [37] 0.457 µM | GI50 [16] 0.843 µM | GI50 [38] 1.34 µM | GI50 [54] 2.37 µM | GI50 [19] 1.1 µM | GI50 [20] 0.637 µM | GI50 [56] 0.665 µM | GI50 [21] 1.26 µM | GI50 [22] 1.14 µM | GI50 [41] 0.455 µM | GI50 [42] 1.64 µM | GI50 [43] 0.436 µM | GI50 [45] 0.597 µM | GI50 [26] 0.846 µM | GI50 [57] 1.29 µM | GI50 [27] 0.611 µM | GI50 [58] 1 µM | GI50 [48] 1.94 µM | GI50 [49] 0.467 µM | GI50 [50] 1.47 µM | GI50 [28] 1.56 µM
9.59 µM: TGI [46]
5.15 µM: TGI [49]
8.1 µM: TGI [21]
3.1 µM: TGI [25]
8.01 µM: TGI [12]
